Test results published in ChEMBL document CHEMBL1152563, “Identification of new agonists of urotensin-II from a cyclic peptide library” (Bioorg Med Chem, 2009).
Peptide text beside a SMILES is read from it.

How the values were obtained:
Urotensin-2 receptor = biological target: T1, Urotensin-2 receptor (Homo sapiens, UniProt Q9UKP6); experiment: Agonist activity at human GPR14 expressed in HEK293 cells by calcium mobilization assay; type: functional, cell-based
T1 sequence (Q9UKP6 whole entry): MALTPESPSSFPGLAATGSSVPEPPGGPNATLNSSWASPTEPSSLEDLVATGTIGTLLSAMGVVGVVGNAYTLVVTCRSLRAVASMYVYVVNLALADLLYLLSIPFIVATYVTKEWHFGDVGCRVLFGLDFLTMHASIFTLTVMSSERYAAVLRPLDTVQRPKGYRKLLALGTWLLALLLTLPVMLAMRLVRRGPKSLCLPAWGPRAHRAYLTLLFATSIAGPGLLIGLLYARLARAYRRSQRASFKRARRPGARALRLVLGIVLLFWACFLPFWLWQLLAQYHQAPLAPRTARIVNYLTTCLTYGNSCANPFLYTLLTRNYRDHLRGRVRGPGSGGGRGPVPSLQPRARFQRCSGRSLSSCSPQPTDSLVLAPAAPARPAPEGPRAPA

[1] = biological target: T2, Urotensin-2 receptor (Homo sapiens) (UniProt Q9UKP6); experiment: Agonist activity at human GPR14 expressed in HEK293 cells by calcium mobilization assay relative to urotensin 2; type: functional, cell-based
T2 sequence (whole entry): T1 sequence (Q9UKP6 whole entry)

**Q.** What does the source list for `NCCCC[C@@H]1NC(=O)[C@H](Cc2c[nH]c3ccccc23)NC(=O)[C@H](Cc2ccccc2)NC(=O)CNC(=O)[C@@H]2CCCN2C(=O)[C@H](Cc2c[nH]c3ccccc23)NC1=O` (cyclo(FWKWPG))?
**A.** EC50 (Urotensin-2 receptor): 20.6 nM; Emax [1]: 92%

**Q.** What does the source list for `NCCCC[C@@H]1NC(=O)[C@H](Cc2c[nH]c3ccccc23)NC(=O)[C@H](Cc2ccccc2)NC(=O)CNC(=O)[C@@H]2CCCN2C(=O)[C@H](Cc2ccccc2)NC1=O` (cyclo(FPGFWK))?
**A.** EC50 (Urotensin-2 receptor): 13.2 nM; Emax [1]: 101%

**Q.** Which results are given for `NCCCC[C@@H]1NC(=O)[C@H](Cc2c[nH]c3ccccc23)NC(=O)[C@H](CO)NC(=O)CNC(=O)[C@@H]2CCCN2C(=O)[C@H](Cc2ccccc2)NC1=O` (cyclo(FPGSWK))?
**A.** EC50 (Urotensin-2 receptor): 10.1 nM; Emax [1]: 96%

**Q.** For `NCCCC[C@@H]1NC(=O)[C@H](Cc2c[nH]c3ccccc23)NC(=O)[C@H](CO)NC(=O)CNC(=O)[C@@H]2CCCN2C(=O)[C@H](Cc2ccc(O)cc2)NC1=O` (cyclo(GSWKYP)), which EC50 (Urotensin-2 receptor) is on record?
**A.** Its EC50 is 8.51 nM.

**Q.** What about the Emax [1] of the same molecule?
**A.** Its Emax is 108%.

**Q.** Which results are given for `NCCCC[C@@H]1NC(=O)[C@H](Cc2c[nH]c3ccccc23)NC(=O)[C@H](Cc2ccc(O)cc2)NC(=O)CNC(=O)[C@@H]2CCCN2C(=O)[C@H](Cc2ccc(O)cc2)NC1=O` (cyclo(GYWKYP))?
**A.** EC50 (Urotensin-2 receptor): 12.6 nM; Emax [1]: 86%

**Q.** `NCCCC[C@@H]1NC(=O)[C@H](Cc2c[nH]c3ccccc23)NC(=O)[C@H](Cc2ccccc2)NC(=O)CNC(=O)[C@@H]2CCCN2C(=O)[C@H](Cc2ccc(O)cc2)NC1=O` (cyclo(FWKYPG)) was tested. Which EC50 (Urotensin-2 receptor) did it give?
**A.** Its EC50 is 6.94 nM.

**Q.** What about the Emax [1] of the same molecule?
**A.** Its Emax is 98%.

**Q.** Which EC50 (Urotensin-2 receptor) does the source give for `NCCCC[C@@H]1NC(=O)[C@H](Cc2c[nH]c3ccccc23)NC(=O)[C@H](CO)NC(=O)CNC(=O)[C@@H]2CCCN2C(=O)[C@H](Cc2c[nH]c3ccccc23)NC1=O` (cyclo(GSWKWP)) here?
**A.** Its EC50 is 16.7 nM.

**Q.** What about the Emax [1] of the same molecule?
**A.** Its Emax is 100%.

**Q.** Which EC50 (Urotensin-2 receptor) does the source give for `NCCCC[C@@H]1NC(=O)[C@H](Cc2c[nH]c3ccccc23)NC(=O)[C@H](Cc2ccc(O)cc2)NC(=O)CNC(=O)[C@@H]2CCCN2C(=O)[C@H](Cc2ccccc2)NC1=O` (cyclo(FPGYWK)) here?
**A.** The EC50 was 75.7 nM.

**Q.** And the Emax [1]?
**A.** The Emax was 102%.
